Laboratory results taken from publication PMC5011342, “A high throughput drug screening assay to identify compounds that promote oligodendrocyte differentiation using acutely dissociated and purified oligodendrocyte precursor cells” (BMC Research Notes, 2016).
Read-outs that look alike come from different tables or passages of the source.

Experiments:
expanded OPCs = experiment: cells; settings: for 0.1 µM (% DMSO) / 1 µM (% DMSO) / 10 µM (% DMSO): alamarBlue viability of expanded OPCs, relative to DMSO control; for 0.1 µM (% DMSO): compound at 0.1 µM; for 1 µM (% DMSO): compound at 1 µM; for 10 µM (% DMSO): compound at 10 µM; for viability at 0.1 µM / viability at 1 µM / viability at 10 µM: Rattus norvegicus, 72 h
Protocol: Having established a consistent assay for measuring OL differentiation in vitro, the next step was to utilize this assay to assess the ability of a wide array of compounds to promote OL differentiation. Prior to library screening, we first established the maximum non-toxic dose of each compound in the library. […] Therefore, we added each compound in the NIH clinical collection (NCC) library to OPCs at 10, 1, and 0.1 µM concentrations. Three days later, we assessed viability of the treated cells by measuring AlamarBlue fluorescence, a measure of cell viability (see “Methods” section). […] Appropriately, we established three sets of screening concentrations for library compounds: non-toxic compounds were tested at 10 and 2 µM, slightly toxic compounds (only toxic at 10 µM) were tested at 2 and 0.4 µM, and very toxic compounds were tested at 0.4 and 0.08 µM.
OPCs were expanded in vitro by seeding into PDL-coated tissue culture flasks at 1000–2000 cells/cm^2 in differentiation media supplemented with 10 ng/ml PDGF-AA. Proliferating OPCs were fed every 2–3 days and supplemented with 2–3× concentration of PDGF as needed to prevent OPC differentiation. After 6–7 days of proliferation, OPCs were harvested by trypsinization, plated into PDL-coated 96-well Falcon plates and centrifuged at 200×g to facilitate cell attachment, survival, and even distribution of cells. Expanded OPCs were seeded in differentiation media at 10,000 cells/well and incubated for 2 h at 37 °C, 10 % CO2 prior to addition of compounds. The NCC library was diluted and added to cells at 10, 1, and 0.1 µM; each concentration was tested in quadruplicate. As a positive control for the induction of toxicity, 5 ng/ml tunicamycin was added to 8 wells in each plate. Three days later, a 1:10 dilution of alamarBlue® (AB) was added to each well and cells were incubated 4 h at 37 °C, 10 % CO2. AB fluorescence was measured using a PerkinElmer Victor II fluorescence microplate reader (PerkinElmer, Waltham, MA) with 560 nm excitation/590 nm emission filters. For library screening, the highest concentration of each compound was adjusted to a minimally toxic concentration based on this toxicity data. Compounds were additionally tested at a second concentration that was 1/5th of the top concentration. The final concentration of DMSO in each well was 0.1 %.

[1] = tested on: acutely dissociated and purified rat OPCs; experiment: Acute OL differentiation assay (MBP expression/cell, immunofluorescent image quantification); assay type: cell-based; settings: Rattus norvegicus
Protocol: In order to identify compounds with the potential to promote OL differentiation in vivo and thereby enhance remyelination, we first wanted to establish an in vitro assay system that would closely mimic conditions in vivo. To do this, we started by using OPCs acutely isolated from postnatal day 6–7 (P6–7) rat brains by O4 immunopanning. […] OPCs were plated directly onto a biological substrate (PDL/laminin) in 96-well view plates at moderate density to allow for sufficient room to expand processes during differentiation. We plated cells in serum-free medium lacking OPC mitogens (no PDGF or FGF) to allow a basal level of OL differentiation to commence, and as a positive control added thyroid hormone (T3, 40 ng/ml) to accelerate differentiation (Fig. 1, flow scheme).
Fig. 1 Flow scheme of the acute OL differentiation assay. a Purified oligodendrocyte precursor cells (OPCs) were cultured from P7 rat cortex and plated into PDL/laminin pre-coated 96-well plates. b One hour later test compounds were added. c OPC cultures with compound were maintained in culture for an additional 4 days. d On the 5th day with compound, cells were fixed and immunostained with anti-MBP antibodies and DAPI. e Images were acquired with automated fluorescence microscopy and scored phenotypically for OL differentiation (see “Methods” section)
To quantify the extent of OL differentiation occurring in treatment conditions, we measured the overall amount of MBP expression/cell (see “Methods” section). Figure 2a depicts the mask created over MBP staining under which the MBP expression was quantified. […]
All animal work was carried out in strict accordance with the recommendations in the Guide for the Care and Use of Laboratory Animals of the National Institutes of Health. The protocol was approved by the Institutional Use and Care and Use Committee at the Molecular Medicine Research Institute (Sunnyvale, CA). Animals used for OPC isolation in these studies were euthanized by decapitation. OPCs from brains of P6-P7 Sprague–Dawley rat pups (Charles River, Wilmington, MA, USA) were enriched by immunopanning as previously described (Dugas et al. 2006). Briefly, single cell suspensions were obtained from papain-digested neonatal brains and depleted of mature glial cells by successive panning with RAN-2- and GalC-coated plates, followed by enrichment for OPCs using O4-coated plates. OPCs were plated in differentiation media (DMEM, 100 U/ml Penicillin/100 µg/ml streptomycin, 2 mM L-glutamine, 1 mM Na pyruvate, 5 µg/ml insulin, 5 µg/ml N-acetyl-L-cysteine, 1× trace elements B,10 ng/ml d-Biotin, 100 µg/ml BSA, 100 µg/ml apo-transferrin, 16 µg/ml putrescine, 60 ng/ml progesterone, 40 ng/ml sodium selenite 5 ng/ml forskolin, 10 ng/ml CNTF, 1 ng/ml NT-3).
Acutely enriched OPCs were plated in differentiation media at 5000 cells/well into PDL/laminin coated 96-well view plates and centrifuged at 200×g to facilitate cell attachment, survival, and even distribution of OPCs. OPCs were pre-incubated for 1–2 h at 37 °C in 10 % CO2, followed by the addition of test compounds in quadruplicate. Controls were added in eight replicate wells, negative control = 0.1 % DMSO; positive control = 40 ng/ml T3. The day of OPC plating was considered DIV0. On DIV4, cells were fixed, immunostained for myelin basic protein (MBP) expression, imaged and quantified as described below.

[2] = test compound at 2 uM, MBP expression relative to quetiapine, NCC library screen, sheet "All OLga data", read-out: 2 uM (% Quet)
[3] = test compound at 10 uM, MBP expression relative to quetiapine, NCC library screen, sheet "All OLga data", read-out: 10 uM (% Quet)
[4] = read-out: 0.1 µM (% DMSO), alamarBlue viability of expanded OPCs, compound at 0.1 µM, sheet All Tox data
[5] = read-out: 1 µM (% DMSO), alamarBlue viability of expanded OPCs, compound at 1 µM, sheet All Tox data
[6] = read-out: 10 µM (% DMSO), alamarBlue viability of expanded OPCs, compound at 10 µM, sheet All Tox data
[7] = 2 uM test compound, relative to quetiapine, sheet "All OLga data", read-out: OL differentiation, 2 uM (% Quet)
[8] = 10 uM test compound, relative to quetiapine, sheet "All OLga data", read-out: OL differentiation, 10 uM (% Quet)
[9] = read-out: 0.1 µM (% DMSO), alamarBlue viability, NCC library compound at 0.1 µM, sheet "All Tox data"
[10] = read-out: 1 µM (% DMSO), alamarBlue viability, NCC library compound at 1 µM, sheet "All Tox data"
[11] = read-out: 10 µM (% DMSO), alamarBlue viability, NCC library compound at 10 µM, sheet "All Tox data"
[12] = test compound at 2 uM, NCC library screen, sheet "All OLga data", relative to quetiapine, read-out: 2 uM (% Quet)
[13] = test compound at 10 uM, NCC library screen, sheet "All OLga data", relative to quetiapine, read-out: 10 uM (% Quet)

Row | Structure (SMILES) | 0.1 µM (% DMSO) (expanded OPCs) | 1 µM (% DMSO) (expanded OPCs) | 10 µM (% DMSO) (expanded OPCs) | viability at 0.1 µM (expanded OPCs; [4]) | viability at 1 µM (expanded OPCs; [5]) | viability at 10 µM (expanded OPCs; [6]) | activation at 2 µM [1, 7] | activation at 10 µM [1, 8] | activation at 2 µM [1, 12] | activation at 10 µM [1, 13] | other results
1 | COc1cc(C)c(/C=C/C(C)=C/C=C/C(C)=C/C(=O)O)c(C)c1C [Acitretin] | 101.2 % DMSO | 141.3 % DMSO | 148.0 % DMSO |  |  |  |  |  |  |  | activation at 2 µM [1, 2]: 68.7%; activation at 10 µM [1, 3]: 51.4%
2 | CC(=O)Nc1ccc(CC(=O)O)cc1 [Actarit] |  |  |  | 96.4% | 104% | 102% | 4.4% | -11.3% |  |  | 
3 | Nc1nc2c(ncn2COCCO)c(=O)[nH]1 [Acyclovir] | 98.2 % DMSO | 90.8 % DMSO | 91.7 % DMSO |  |  |  |  |  |  |  | activation at 2 µM [1, 2]: 21.2%; activation at 10 µM [1, 3]: 4.3%
4 | Nc1ncnc2c1ncn2[C@@H]1O[C@H](CO)[C@@H](O)[C@H]1O [Adenosine] |  |  |  |  |  |  |  |  | 3.3% | -9.9% | viability at 0.1 µM (expanded OPCs; [9]): 88.5%; viability at 1 µM (expanded OPCs; [10]): 81.3%; viability at 10 µM (expanded OPCs; [11]): 80.5%
5 | CCCSc1ccc2nc(NC(=O)OC)[nH]c2c1 [Albendazole] | 55.7 % DMSO | 57.4 % DMSO | 58.6 % DMSO |  |  |  |  |  |  |  | activation at 0.4 µM ([1]; read-out: 0.4 uM (% Quet)): -27.1%; activation at 2 µM ([1]; read-out: 2 uM (% Quet)): -112%
6 | COc1cc2nc(N(C)CCCNC(=O)C3CCCO3)nc(N)c2cc1OC (centres unmarked) [Alfuzosin] |  |  |  | 90.1% | 89.6% | 86.6% | -11.1% | -32.5% |  |  | 
7 | Oc1ncnc2[nH]ncc12 [Allopurinol] | 83.9 % DMSO | 89.7 % DMSO | 89.6 % DMSO |  |  |  |  |  | -5.6% | -5.5% | 
8 | Cc1[nH]cnc1CN1CCc2c(c3ccccc3n2C)C1=O [Alosetron] |  |  |  | 106% | 91.2% | 96.3% | -24% | -21.2% |  |  | 
9 | Cc1nnc2n1-c1ccc(Cl)cc1C(c1ccccc1)=NC2 [Alprazolam] |  |  |  | 102% | 115% | 139% | -12.2% | -116% |  |  | 
10 | CCCCC[C@H](O)/C=C/[C@H]1[C@H](O)CC(=O)[C@@H]1CCCCCCC(=O)O [Alprostadil] |  |  |  |  |  |  |  |  | -7.2% | -67.6% | viability at 0.1 µM (expanded OPCs; [9]): 84.4%; viability at 1 µM (expanded OPCs; [10]): 85.6%; viability at 10 µM (expanded OPCs; [11]): 81.6%
11 | O=C(c1ccc(F)cc1)C1CCN(CCn2c(=S)[nH]c3ccccc3c2=O)CC1 [Altanserin] |  |  |  |  |  |  | -4% | -10% |  |  | viability at 0.1 µM (expanded OPCs; [9]): 107%; viability at 1 µM (expanded OPCs; [10]): 94.1%; viability at 10 µM (expanded OPCs; [11]): 56%
12 | CN(C)c1nc(N(C)C)nc(N(C)C)n1 [Altretamine] |  |  |  |  |  |  |  |  | -1.1% | -13.9% | viability at 0.1 µM (expanded OPCs; [9]): 94.2%; viability at 1 µM (expanded OPCs; [10]): 87.4%; viability at 10 µM (expanded OPCs; [11]): 85%
13 | NC12CC3CC(CC(C3)C1)C2 [Amantadine] | 89.6 % DMSO | 86.9 % DMSO | 77.6 % DMSO |  |  |  |  |  | -21.4% | -19.9% | 
14 | CC(=O)OCC(=O)[C@@]12OC3(CCCC3)O[C@@H]1C[C@H]1[C@@H]3CCC4=CC(=O)C=C[C@]4(C)[C@@]3(F)[C@@H](O)C[C@@]12C [Amcinonide] | 113.8 % DMSO | 123.7 % DMSO | 114.6 % DMSO |  |  |  |  |  |  |  | activation at 2 µM [1, 2]: 18.1%; activation at 10 µM [1, 3]: -10.2%
15 | CC1(C)S[C@@H]2[C@H](/N=C/N3CCCCCC3)C(=O)N2[C@H]1C(=O)O [Amdinocillin] |  |  |  | 89.7% | 98.8% | 102% | -15.6% | 5.8% |  |  | 
16 | N=C(N)NC(=O)c1nc(Cl)c(N)nc1N [Amiloride] |  |  |  | 82.2% | 83.7% | 90.8% | -5.9% | -0.4% |  |  | 
